Source: patent US9364465B2, “Thiazolidinediones of omega-3 polyunsaturated acids as new insulin sensitizers for treating type2 diabetes” (Jiva Pharma, Inc., priority 2013, dated 2016)
Where two headings read alike, the source gives them in different places.

Molecular target: T1, PPARγ (Homo sapiens, UniProt P37231)
T1 construct: expressed in transfected cells
T1 sequence (P37231 238-503 limits assumed): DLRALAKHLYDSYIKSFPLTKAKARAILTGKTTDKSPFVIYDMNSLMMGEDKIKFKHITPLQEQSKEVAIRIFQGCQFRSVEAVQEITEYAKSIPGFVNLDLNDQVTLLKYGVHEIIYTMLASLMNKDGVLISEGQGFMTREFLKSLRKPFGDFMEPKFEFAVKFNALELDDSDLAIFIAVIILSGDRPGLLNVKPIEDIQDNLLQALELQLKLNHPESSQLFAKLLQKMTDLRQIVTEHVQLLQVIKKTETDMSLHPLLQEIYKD
Experiment: cell-based chimeric receptor transcription assay (PPAR ligand binding domain fused to GAL4 DNA binding domain, GAL4-regulated luciferase reporter)
Conditions: for RE: RE Conc. 16 μM
Protocol: To determine if these compounds can activate PPARγ or the members of the PPAR family of nuclear receptors (PPARα and PPARδ), the ability of these compounds to activate PPAR receptors in a cell-based chimeric receptor transcription assay were tested. This is a standard nuclear receptor ligand activity assay that utilizes the ligand binding domain of the PPAR receptor fused to a heterologous GAL4 DNA binding domain. The transcriptional read-out is from a GAL4-regulated luciferase reporter. In this assay, compounds that activate the receptor cause an increase in luciferase activity measured in a luminometer. The data are shown in Table 1 below (average luciferase values from transcription assay).

[1] = 1.02 μM conc., * above background
[2] = 2.6 μM conc., * above background
[3] = 6.4 μM conc., * above background
[4] = 16 μM conc., * above background
[5] = 40 μM conc., * above background
[6] = calculated EC50, PPARγ agonist assay, Table 2, read-out: EC50
[7] = read-out: activation of PPARγ, potency (EC50)

average luciferase values from transcription assay (0.16 μM conc.) | average luciferase values from transcription assay (0.41 μM conc.) | average luciferase values from transcription assay [1] | average luciferase values from transcription assay [2] | average luciferase values from transcription assay [3] | average luciferase values from transcription assay [4] | average luciferase values from transcription assay [5] | RE | EC50 [6] [µM] | EC50 [7] [µM] | Compound
106 | 145 | 167* | 207* | 623* | 1454* | 1868* | 1354 | 9.7 | 10 | CC/C=C\C/C=C\C/C=C\C/C=C\C/C=C\C/C=C\CCCC1SC(=O)NC1=O (centres unmarked) [DHA-TZ, 5-((4Z,7Z,10Z,13Z,16Z,19Z)-docosa-4,7,10,13,16,19-hexaenyl)thiazolidine-2,4-dione]
 |  |  |  |  |  |  |  | > 100 |  | CC/C=C\C/C=C\C/C=C\C/C=C\C/C=C\CCCC(=O)OCC [EPA Et Ester, eicosapentaenoic acid ethyl ester, reference compound]
128 | 123 | 164* | 297* | 705* | 1416* | 48^ | 1316 |  | 12 | CC/C=C\C/C=C\C/C=C\C/C=C\C/C=C\CCCCC1SC(=O)NC1=O (centres unmarked) [EPA-TZ, 5-((5Z,8Z,11Z,14Z,17Z)-eicosa-5,8,11,14,17-pentaenyl)thiazolidine-2,4-dione]
